One experiment has as its target DGKα (Homo sapiens (Human), UniProt P23743). Briefly: In vitro DGKα inhibition assay (ADP-Glo). It counts as biochemical. Particulars: His-tagged human recombinant enzyme, 0.1 nM DGKα, 50 μM ATP, 20 μM DLG, 90 minute incubation. As for the experimental part: (§1) The DGKα and DGKξ biochemical reactions were performed using His-tagged human recombinant enzymes (Signal Chem, DGKα, #D21-1OBH; DGKξ, #D30-10H)) and DLG (Dilauroyl-sn-glycerol) lipid substrate (Signal Chem, #D430-59). ADP-Glo assay was performed using ADP-Glog™ kinase Assay kit (Promega, #V9104). The reactions were carried out in assay buffer containing 40 mM Tris, pH 7.5, 0.1% CHAPS, 0.1% Prionex, 40 mM NaCl, 5 mM MgCl2, 1 mM CaCl2, and 1 mM DTT. DGKα reactions contained 0.1 nM DGKα, 50 μM ATP, and 20 μM DLG. And DGKC reactions contained 0.4 nM DGK, 30 μM ATP, and 20 μM DLG.
(§2) For compound inhibition studies, 40 nL test compound in DMSO was added to wells of white polystyrene plates in 384-well (Greiner, #784075) or 1536-well format (Greiner, #782075). Compounds were added with top concentration of 2 mM with 11 point, 3-fold dilution series. Enzyme solution (contains 2×DGK enzyme concentration in Ix assay buffer) was added to the plate in 2 μL/well volume, followed by 2 μL/well of substrate solution (contains 2×concentration of ATP and DLG substrate in Ix assay buffer). Plates were then centrifuged for 1 min at 1200 RPM and sealed or lidded. For 4 μL reaction volume, test compounds were therefore diluted 100× to final top concentration of 20 μM. After 90 minute incubation, reactions were quenched by addition of 2 μL/well Promega ADP-Glo Reagent, followed by centrifugation and lidding. After 60 min incubation, 2 μL/well Promega Kinase Detection Reagent was added, plates centrifuged, and incubated for 30 min. Plates were then read using Luminescence method on BMG PHERAstar FSX plate reader. Percent inhibition was calculated and IC50s were determined using 4-parameter fit in Genedata Screener. Labcyte Echo acoustic dispenser was used for compound addition, and Formulatrix Tempest liquid handler was used for all reagent dispenses.
(In general: ADP-Glo turns the ADP formed in a reaction into a luminescent signal.)

The target of the next experiment is DGKζ (Homo sapiens (Human), UniProt Q13574). Briefly: In vitro DGKζ inhibition assay (ADP-Glo). As to conditions: His-tagged human recombinant enzyme, 0.4 nM DGK, 30 μM ATP, 20 μM DLG, 90 minute incubation. It is filed as biochemical. As for the experimental part:
as §1, §2

Results on 19 molecules are retold here after patent US20230399342A1 (Incyte Corporation, priority 2022, published 2023).

DGKζ, sequence (Q13574 whole entry): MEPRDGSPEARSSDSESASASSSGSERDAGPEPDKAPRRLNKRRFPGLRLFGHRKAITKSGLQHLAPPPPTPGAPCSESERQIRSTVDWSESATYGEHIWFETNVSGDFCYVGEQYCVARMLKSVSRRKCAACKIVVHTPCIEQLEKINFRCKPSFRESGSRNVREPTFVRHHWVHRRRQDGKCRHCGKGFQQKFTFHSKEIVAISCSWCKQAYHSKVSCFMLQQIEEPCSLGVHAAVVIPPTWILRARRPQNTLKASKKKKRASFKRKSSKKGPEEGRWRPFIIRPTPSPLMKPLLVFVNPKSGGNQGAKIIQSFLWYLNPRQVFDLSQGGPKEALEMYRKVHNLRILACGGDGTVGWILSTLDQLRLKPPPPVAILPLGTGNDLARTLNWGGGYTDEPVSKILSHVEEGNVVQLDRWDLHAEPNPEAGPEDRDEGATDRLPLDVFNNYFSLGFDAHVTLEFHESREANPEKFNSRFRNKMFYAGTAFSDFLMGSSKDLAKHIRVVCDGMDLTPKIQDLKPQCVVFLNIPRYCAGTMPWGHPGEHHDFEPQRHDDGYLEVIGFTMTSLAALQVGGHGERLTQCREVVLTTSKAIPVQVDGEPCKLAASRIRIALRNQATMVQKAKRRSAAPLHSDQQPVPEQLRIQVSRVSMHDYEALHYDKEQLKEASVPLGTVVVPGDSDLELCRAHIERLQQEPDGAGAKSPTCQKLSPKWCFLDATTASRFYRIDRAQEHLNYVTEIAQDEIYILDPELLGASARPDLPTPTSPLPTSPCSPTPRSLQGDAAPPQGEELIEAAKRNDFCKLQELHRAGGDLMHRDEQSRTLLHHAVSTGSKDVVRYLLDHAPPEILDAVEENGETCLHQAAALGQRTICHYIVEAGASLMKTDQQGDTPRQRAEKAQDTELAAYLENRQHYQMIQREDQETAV
DGKα, sequence (P23743 whole entry): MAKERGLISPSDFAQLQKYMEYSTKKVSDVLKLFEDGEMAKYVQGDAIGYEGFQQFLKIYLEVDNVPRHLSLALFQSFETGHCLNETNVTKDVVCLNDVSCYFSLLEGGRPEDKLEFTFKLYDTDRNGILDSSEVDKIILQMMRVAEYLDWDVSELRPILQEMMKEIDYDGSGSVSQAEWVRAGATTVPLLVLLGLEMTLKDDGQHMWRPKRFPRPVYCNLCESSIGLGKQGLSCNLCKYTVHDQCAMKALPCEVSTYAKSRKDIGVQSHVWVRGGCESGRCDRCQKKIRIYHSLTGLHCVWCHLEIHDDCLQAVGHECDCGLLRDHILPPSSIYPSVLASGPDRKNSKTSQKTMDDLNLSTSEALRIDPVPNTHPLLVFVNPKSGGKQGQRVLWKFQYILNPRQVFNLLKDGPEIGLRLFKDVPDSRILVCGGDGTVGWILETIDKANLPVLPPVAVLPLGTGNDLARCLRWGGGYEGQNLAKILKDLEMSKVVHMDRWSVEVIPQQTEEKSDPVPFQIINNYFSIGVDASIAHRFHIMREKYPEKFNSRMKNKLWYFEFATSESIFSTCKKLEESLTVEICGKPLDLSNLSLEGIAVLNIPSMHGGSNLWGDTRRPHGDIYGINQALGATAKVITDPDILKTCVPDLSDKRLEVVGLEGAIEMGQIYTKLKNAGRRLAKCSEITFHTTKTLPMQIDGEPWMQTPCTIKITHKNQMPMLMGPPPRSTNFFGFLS

One may read the IC50 as the concentration at which inhibition is half-maximal. `C[C@@H]1CN(c2nc3nncn3c3c2ncn3CC2CC2)[C@@H](C)CN1[C@H](c1ccc(F)cc1)c1ccc(OC(F)(F)F)cn1` [Example 25, 1-(cyclopropylmethyl)-4-((2S,5R)-4-((R)-(4-fluorophenyl)(5-(trifluoromethoxy)pyridin-2-yl)methyl)-2,5-dimethylpiperazin-1-yl)-1H-[1,2,4]triazolo[3,4-b]purine]: the IC50 is at most 20 nM on DGKα and 20 to 200 nM on DGKζ.
For the molecule `C[C@@H]1CN(c2nc3nncn3c3c2ncn3C[C@@H]2CCCO2)[C@@H](C)CN1[C@@H](c1ccc(F)cc1)c1ccc(OC(F)(F)F)cn1` [Example 26, 4-((2S,5R)-4-((S)-(4-Fluorophenyl)(5-(trifluoromethoxy)pyridin-2-yl)methyl)-2,5-dimethylpiperazin-1-yl)-1-(((S)-tetrahydrofuran-2-yl)methyl)-1H-[1,2,4]triazolo[3,4-b]purine], the IC50 at DGKα and at DGKζ was at most 20 nM in each case.
In the case of `C[C@@H]1CN(c2nc3nncn3c3c2ncn3C[C@@H]2CCCO2)[C@@H](C)CN1[C@H](c1ccc(F)cc1)c1ccc(OC(F)(F)F)cn1` [Example 27, 4-((2S,5R)-4-((R)-(4-fluorophenyl)(5-(trifluoromethoxy)pyridin-2-yl)methyl)-2,5-dimethylpiperazin-1-yl)-1-(((S)-tetrahydrofuran-2-yl)methyl)-1H-[1,2,4]triazolo[3,4-b]purine], the IC50 on DGKα and on DGKζ was at most 20 nM each time.
Turning to `C[C@@H]1CN(c2nc3nncn3c3c2ncn3CCN(C)C)[C@@H](C)CN1C(c1ccc(F)cc1)c1ccc(F)cc1` [Example 28, 2-(4-((2S,5R)-4-(Bis(4-fluorophenyl)methyl)-2,5-dimethylpiperazin-1-yl)-1H-[1,2,4]triazolo[3,4-b]purin-1-yl)-N,N-dimethylethan-1-amine], the IC50 at DGKα and on DGKζ was at most 20 nM in each case.
In the case of `C[C@@H]1CN(c2nc3nncn3c3c2nnn3C[C@H]2CCCO2)[C@@H](C)CN1C(c1ccc(F)cc1)c1ccc(F)cc1` [Example 29, 4-((2S,5R)-4-(Bis(4-fluorophenyl)methyl)-2,5-dimethylpiperazin-1-yl)-1-(((R)-tetrahydrofuran-2-yl)methyl)-1H-[1,2,3]triazolo[4,5-e][1,2,4]triazolo[4,3-a]pyrimidine], the IC50 at DGKα and at DGKζ was at most 20 nM throughout.
As for `CC[C@@H]1CN(c2nc3nncn3c3c2nnn3C[C@@H]2CCCO2)[C@@H](C)CN1C(c1ccc(F)cc1)c1ccc(F)cc1` [Example 30, 4-((2S,5R)-4-(Bis(4-fluorophenyl)methyl)-5-ethyl-2-methylpiperazin-1-yl)-1-(((S)-tetrahydrofuran-2-yl)methyl)-1H-[1,2,3]triazolo[4,5-e][1,2,4]triazolo[4,3-a]pyrimidine], the IC50 at DGKα and at DGKζ was at most 20 nM in each case.
For the molecule `CC[C@H]1CN(C(c2ccc(F)cc2)c2ccc(F)cc2)[C@H](CC)CN1c1nc2nncn2c2c1nnn2C[C@@H]1CCCO1` [Example 31, 4-((2S,5R)-4-(Bis(4-fluorophenyl)methyl)-2,5-diethylpiperazin-1-yl)-1-(((S)-tetrahydrofuran-2-yl)methyl)-1H-[1,2,3]triazolo[4,5-e][1,2,4]triazolo[4,3-a]pyrimidine], the IC50 on DGKα and at DGKζ was at most 20 nM each time.
Turning to `CC[C@@H]1CN(c2nc3nncn3c3c2nnn3C[C@H]2CCCO2)[C@@H](C)CN1C(c1ccc(F)cc1)c1ccc(F)cc1` [Example 32, 4-((2S,5R)-4-(Bis(4-fluorophenyl)methyl)-5-ethyl-2-methylpiperazin-1-yl)-1-(((R)-tetrahydrofuran-2-yl)methyl)-1H-[1,2,3]triazolo[4,5-e][1,2,4]triazolo[4,3-a]pyrimidine], the IC50 on DGKα and on DGKζ was at most 20 nM each time.
With `CC[C@H]1CN(C(c2ccc(F)cc2)c2ccc(F)cc2)[C@H](CC)CN1c1nc2nncn2c2c1nnn2C[C@H]1CCCO1` [Example 33, 4-((2S,5R)-4-(Bis(4-fluorophenyl)methyl)-2,5-diethylpiperazin-1-yl)-1-(((R)-tetrahydrofuran-2-yl)methyl)-1H-[1,2,3]triazolo[4,5-e][1,2,4]triazolo[4,3-a]pyrimidine], the IC50 at DGKα and on DGKζ was at most 20 nM each time.
For the molecule `[2H]c1nc2c(N3C[C@@H](C)N(C(c4ccc(F)cc4)c4ccc(F)cc4)C[C@@H]3C)nc3nncn3c2n1CCN(C)C` [Example 34, 2-(4-((2S,5R)-4-(Bis(4-fluorophenyl)methyl)-2,5-dimethylpiperazin-1-yl)-1H-[1,2,4]triazolo[3,4-b]purin-1-yl-2-d)-N,N-dimethylethan-1-amine], the IC50 at DGKα and on DGKζ was at most 20 nM in each case.
As for `CC[C@H]1CN(C(c2ccc(F)cc2)c2ccc(F)cc2)[C@H](CC)CN1c1nc2nncn2c2c1ncn2CCN(C)C` [Example 35, 2-(4-((2S,5R)-4-(Bis(4-fluorophenyl)methyl)-2,5-diethylpiperazin-1-yl)-1H-[1,2,4]triazolo[3,4-b]purin-1-yl)-N,N-dimethylethan-1-amine], the IC50 on DGKα and on DGKζ was at most 20 nM in each case.
Turning to `[2H]c1nc2c(N3C[C@@H](CC)N(C(c4ccc(F)cc4)c4ccc(F)cc4)C[C@@H]3CC)nc3nncn3c2n1CCN(C)C` [Example 36, 2-(4-((2S,5R)-4-(Bis(4-fluorophenyl)methyl)-2,5-diethylpiperazin-1-yl)-1H-[1,2,4]triazolo[3,4-b]purin-1-yl-2-d)-N,N-dimethylethan-1-amine], the IC50 on DGKα and at DGKζ was at most 20 nM each time.
As for `CC[C@@H]1CN(c2nc3nncn3c3c2ncn3CCN(C)C)[C@@H](C)CN1C(c1ccc(F)cc1)c1ccc(F)cc1` [Example 37, 2-(4-((2S,5R)-4-(Bis(4-fluorophenyl)methyl)-5-ethyl-2-methylpiperazin-1-yl)-1H-[1,2,4]triazolo[3,4-b]purin-1-yl)-N,N-dimethylethan-1-amine], the IC50 on DGKα and on DGKζ was at most 20 nM throughout.
For `[2H]c1nc2c(N3C[C@@H](CC)N(C(c4ccc(F)cc4)c4ccc(F)cc4)C[C@@H]3C)nc3nncn3c2n1CCN(C)C` [Example 38, 2-(4-((2S,5R)-4-(Bis(4-fluorophenyl)methyl)-5-ethyl-2-methylpiperazin-1-yl)-1H-[1,2,4]triazolo[3,4-b]purin-1-yl-2-d)-N,N-dimethylethan-1-amine], the concentration for half-maximal inhibition (IC50) on DGKα and at DGKζ was at most 20 nM in each case.
For the molecule `CC[C@@H]1CN(c2nc3nncn3c3c2nnn3C[C@@H]2CCCO2)[C@@H](C)CN1C(c1ccc(Cl)cc1)c1ccc(Cl)cc1` [Example 39, 4-((2S,5R)-4-(Bis(4-chlorophenyl)methyl)-5-ethyl-2-methylpiperazin-1-yl)-1-(((S)-tetrahydrofuran-2-yl)methyl)-1H-[1,2,3]triazolo[4,5-e][1,2,4]triazolo[4,3-a]pyrimidine], the IC50 at DGKα and at DGKζ was at most 20 nM each time.
Regarding `CC[C@@H]1CN(c2nc3nncn3c3c2nnn3C[C@H]2CCCO2)[C@@H](C)CN1C(c1ccc(Cl)cc1)c1ccc(Cl)cc1` [Example 40, 4-((2S,5R)-4-(Bis(4-chlorophenyl)methyl)-5-ethyl-2-methylpiperazin-1-yl)-1-(((R)-tetrahydrofuran-2-yl)methyl)-1H-[1,2,3]triazolo[4,5-e][1,2,4]triazolo[4,3-a]pyrimidine], the half-maximal inhibitory concentration (IC50) on DGKα and at DGKζ was at most 20 nM throughout.
On to `CC[C@@H]1CN(c2nc3nncn3c3c2nc(C)n3C[C@@H]2CCCO2)[C@@H](C)CN1C(c1ccc(Cl)cc1)c1ccc(Cl)cc1` [Example 41, 4-((2S,5R)-4-(Bis(4-chlorophenyl)methyl)-5-ethyl-2-methylpiperazin-1-yl)-2-methyl-1-(((S)-tetrahydrofuran-2-yl)methyl)-1H-[1,2,4]triazolo[3,4-b]purine], for which the IC50 on DGKα and on DGKζ was at most 20 nM in each case.
As to `CC[C@@H]1CN(c2nc3nncn3c3c2nc(C)n3C[C@H]2CCCO2)[C@@H](C)CN1C(c1ccc(Cl)cc1)c1ccc(Cl)cc1` [Example 42, 4-((2S,5R)-4-(Bis(4-chlorophenyl)methyl)-5-ethyl-2-methylpiperazin-1-yl)-2-methyl-1-(((R)-tetrahydrofuran-2-yl)methyl)-1H-[1,2,4]triazolo[3,4-b]purine], the IC50 at DGKα and at DGKζ was at most 20 nM each time.
On to `Cc1nc2c(N3C[C@@H](C)N([C@H](c4ccc(F)c(F)c4)C4CC(F)(F)C4)C[C@@H]3C)nc3nncn3c2n1C[C@@H]1CCCO1` [Example 46, 4-((2S,5R)-4-((S)-(3,3-Difluorocyclobutyl)(3,4-difluorophenyl)methyl)-2,5-dimethylpiperazin-1-yl)-2-methyl-1-(((S)-tetrahydrofuran-2-yl)methyl)-1H-[1,2,4]triazolo[3,4-b]purine], for which the IC50 at DGKα and at DGKζ was at most 20 nM in each case.
